Experimental data from patent US7642245B2, “Antibacterial compounds having a (pyrrole carboxamide)-(benzamide)-(imidazole carboxamide) motif” (Oscient Pharmaceuticals Corporation, priority 2002, dated 2010).

Columns and labels:
E. faecalis ATCC 29212 = assay: MIC, NCCLS broth microdilution; format: cell-based, Enterococcus faecalis; details: C = E. faecalis ATCC 29212
Summary of the method: (§1)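 Minimal inhibitory concentration determined by NCCLS broth microdilution in microtiter plates per documents M7-A4, M11-A4 and M27-T. S. aureus ATCC 27660 is a methicillin-resistant strain. The antifungal test on C. albicans followed the method recommended in the Manual of Clinical Microbiology (1995).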

E. coli ATCC 25922 = assay: MIC, NCCLS broth microdilution; format: cell-based, Escherichia coli; details: G = E. coli ATCC 25922
Summary of the method: as §1

B. cereus ATCC 11778 = assay: MIC, NCCLS broth microdilution; format: cell-based, Bacillus cereus; details: D = B. cereus ATCC 11778
Summary of the method: (§2)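 Antibacterial MICs against B. cereus, methicillin-resistant S. aureus and M. catarrhalis were measured by the NCCLS reference broth microdilution method. Yeast testing applied the Manual of Clinical Microbiology antifungal protocol.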

[1] = tested on: M. catarrhalis (ATCC 25238); assay: MIC, NCCLS broth microdilution; format: cell-based, Moraxella (now Branhamella) catarrhalis; details: H = M. catarrhalis (ATCC 25238)
Summary of the method: as §2

C. albicans ATCC 38247 = assay: MIC, antifungal assay; format: cell-based, Candida albicans; details: F = C. albicans ATCC 38247
Summary of the method: as §2

S. pneumoniae ATCC 49619 = assay: MIC, NCCLS broth microdilution; format: cell-based, Streptococcus pneumoniae; details: E = S. pneumoniae ATCC 49619
Summary of the method: as §1

S. aureus ATCC 27660 = assay: MIC, NCCLS broth microdilution; format: cell-based, Staphylococcus aureus; details: B = S. aureus ATCC 27660 (MRSA)
Summary of the method: as §2

S. aureus ATCC 13709 = assay: MIC, NCCLS broth microdilution; format: cell-based, Staphylococcus aureus; details: A = S. aureus ATCC 13709 (MSSA)
Summary of the method: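 MIC values come from microtiter-plate broth microdilution run to NCCLS standards (M7-A4, M11-A4, M27-T). For C. albicans ATCC 38247, the antifungal procedure of the 1995 Manual of Clinical Microbiology was used instead.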

Row | Compound | Minimum Inhibitory Concentration (MIC) (E. faecalis ATCC 29212) | Minimum Inhibitory Concentration (MIC) (E. coli ATCC 25922) | Minimum Inhibitory Concentration (MIC) (B. cereus ATCC 11778) | Minimum Inhibitory Concentration (MIC) [1] | Minimum Inhibitory Concentration (MIC) (C. albicans ATCC 38247) [µg/mL] | Minimum Inhibitory Concentration (MIC) (S. pneumoniae ATCC 49619) | Minimum Inhibitory Concentration (MIC) (S. aureus ATCC 27660) | Minimum Inhibitory Concentration (MIC) (S. aureus ATCC 13709)
1 | Cn1cc(NC(=O)c2cc3ccccc3cn2)cc1C(=O)Nc1ccc(C(=O)Nc2cn(C)c(C(=O)NCCN3CCC(OC(=O)CNC(=O)C4OC(O)C(O)C(O)C4O)CC3)n2)cc1 (stereo not drawn) [Compound A-74] | +++ (MIC ≦ 4 μg/mL) | >32 µg/mL | +++ (MIC ≦ 4 μg/mL) | >32 µg/mL | >32 | +++ (MIC ≦ 4 μg/mL) | +++ (MIC ≦ 4 μg/mL) | +++ (MIC ≦ 4 μg/mL)
2 | Cn1cc(NC(=O)c2cc3ccccc3cn2)cc1C(=O)Nc1ccc(C(=O)Nc2cn(C)c(C(=O)NCCN3CCN(C(=O)C4OC(O)C(O)C(O)C4O)CC3)n2)cc1 (stereo not drawn) [Compound A-75] | +++ (MIC ≦ 4 μg/mL) | >32 µg/mL | +++ (MIC ≦ 4 μg/mL) | >32 µg/mL | >32 | +++ (MIC ≦ 4 μg/mL) | +++ (MIC ≦ 4 μg/mL) | +++ (MIC ≦ 4 μg/mL)
3 | Cn1cc(NC(=O)c2cc3ccccc3cn2)cc1C(=O)Nc1ccc(C(=O)Nc2cn(C)c(C(=O)NCCN3CCN(CCOC(=O)CNC(=O)C4OC(O)C(O)C(O)C4O)CC3)n2)cc1 (stereo not drawn) [Compound A-76] | +++ (MIC ≦ 4 μg/mL) | >32 µg/mL | +++ (MIC ≦ 4 μg/mL) | +++ (MIC ≦ 4 μg/mL) | >32 | +++ (MIC ≦ 4 μg/mL) | +++ (MIC ≦ 4 μg/mL) | +++ (MIC ≦ 4 μg/mL)
4 | CC(S)CN1CCN(CCNC(=O)c2nc(NC(=O)c3ccc(NC(=O)c4cc(NC(=O)c5cc6ccccc6cn5)cn4C)cc3)cn2C)CC1 (stereo not drawn) [Compound A-77] | +++ (MIC ≦ 4 μg/mL) | >32 µg/mL | +++ (MIC ≦ 4 μg/mL) | + (12 ≦ MIC ≦ 32 μg/mL) | >32 | +++ (MIC ≦ 4 μg/mL) | ++ (4 < MIC < 12 μg/mL) | +++ (MIC ≦ 4 μg/mL)
5 | CCC(O)CN1CCN(CCNC(=O)c2nc(NC(=O)c3ccc(NC(=O)c4cc(NC(=O)c5cc6ccccc6cn5)cn4C)cc3)cn2C)CC1 (stereo not drawn) [Compound A-78] | +++ (MIC ≦ 4 μg/mL) | + (12 ≦ MIC ≦ 32 μg/mL) | +++ (MIC ≦ 4 μg/mL) | +++ (MIC ≦ 4 μg/mL) | >32 | +++ (MIC ≦ 4 μg/mL) | +++ (MIC ≦ 4 μg/mL) | +++ (MIC ≦ 4 μg/mL)
6 | Cn1cc(NC(=O)c2cc3ccccc3cn2)cc1C(=O)Nc1ccc(C(=O)Nc2cn(C)c(C(=O)NCCN3CCCC3CO)n2)cc1 (stereo not drawn) [Compound A-81] | +++ (MIC ≦ 4 μg/mL) | >32 µg/mL | +++ (MIC ≦ 4 μg/mL) | +++ (MIC ≦ 4 μg/mL) | >32 | +++ (MIC ≦ 4 μg/mL) | +++ (MIC ≦ 4 μg/mL) | +++ (MIC ≦ 4 μg/mL)
